Test results from PubChem BioAssay (NCI).
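Dose response: 5 concentrations. Exposure: 48 h. Format: 96-well plates. Endpoint: linear interpolation; highest concentration if not reached. TGI: total growth inhibition.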

Tests used:
Assay in all cases: NCI tumour cell line growth inhibition, 48 h
[1] = tested on: 786-0 renal
[2] = tested on: A498 renal
[3] = tested on: A549 NSCLC
[4] = tested on: ACHN renal
[5] = tested on: CAKI-1 renal
[6] = tested on: COLO 205 colon
[7] = tested on: DLD-1 colon
[8] = tested on: DMS 114 small cell lung
[9] = tested on: DMS 273 small cell lung
[10] = tested on: EKVX NSCLC
[11] = tested on: HCC-2998 colon
[12] = tested on: HCT-116 colon
[13] = tested on: HCT-15 colon
[14] = tested on: HOP-18 NSCLC
[15] = tested on: HOP-62 NSCLC
[16] = tested on: HOP-92 NSCLC
[17] = tested on: HT29 colon
[18] = tested on: IGROV1 ovarian
[19] = tested on: KM12 colon
[20] = tested on: KM20L2 colon
[21] = tested on: LOX IMVI melanoma
[22] = tested on: LXFL 529 NSCLC
[23] = tested on: M14 melanoma
[24] = tested on: M19-MEL melanoma
[25] = tested on: MALME-3M melanoma
[26] = tested on: MOLT-4 leukemia
[27] = tested on: NCI-H226 lung
[28] = tested on: NCI-H23 lung
[29] = tested on: NCI-H460 lung
[30] = tested on: OVCAR-3 ovarian
[31] = tested on: OVCAR-4 ovarian
[32] = tested on: OVCAR-5 ovarian
[33] = tested on: OVCAR-8 ovarian
[34] = tested on: RPMI-8226 leukemia
[35] = tested on: RXF 393 renal
[36] = tested on: RXF-631 renal
[37] = tested on: SF-268 CNS
[38] = tested on: SF-295 CNS
[39] = tested on: SF-539 CNS
[40] = tested on: SK-MEL-28 melanoma
[41] = tested on: SK-MEL-5 melanoma
[42] = tested on: SK-OV-3 ovarian
[43] = tested on: SN12C renal
[44] = tested on: SNB-19 CNS
[45] = tested on: SNB-75 CNS
[46] = tested on: SNB-78 CNS
[47] = tested on: SR leukemia
[48] = tested on: SW-620 colon
[49] = tested on: TK-10 renal
[50] = tested on: U251 CNS
[51] = tested on: UACC-257 melanoma
[52] = tested on: UACC-62 melanoma
[53] = tested on: UO-31 renal
[54] = tested on: XF 498 CNS
[55] = tested on: CCRF-CEM leukemia
[56] = tested on: HL-60(TB) leukemia
[57] = tested on: K-562 leukemia
[58] = tested on: NCI-H522 lung
[59] = tested on: SK-MEL-2 melanoma

## CC1(C)CC[C@]2(C(=O)O)CCC3(C)C(=CCC4[C@@]5(C)CC[C@H](OC6OCC(O)C(O)C6OC6OC(CO)C(O)C(O)C6O)C(C)(C)C5CC[C@]43C)C2C1 (stereo partly drawn)
[1]
  TGI: 4.02 µM
[2]
  TGI: 4.09 µM
[3]
  TGI: 3.53 µM
[4]
  TGI: 3.64 µM
[5]
  TGI: 3.06 µM
[6]
  TGI: 3.49 µM
[7]
  TGI: 22.7 µM
[8]
  TGI: 3.62 µM
[9]
  TGI: 3.93 µM
[10]
  TGI: 3.85 µM
[11]
  TGI: 3.16 µM
[12]
  TGI: 7.06 µM
[13]
  TGI: 4.38 µM
[14]
  TGI: 3.48 µM
[15]
  TGI: 4.16 µM
[16]
  TGI: 3.69 µM
[17]
  TGI: 5.23 µM
[18]
  TGI: 5.23 µM
[19]
  TGI: 4.8 µM
[20]
  TGI: 3.7 µM
[21]
  TGI: 4.18 µM
[22]
  TGI: 3.39 µM
[23]
  TGI: 3.45 µM
[24]
  TGI: 3.46 µM
[25]
  TGI: 3.54 µM
[26]
  TGI: 7.95 µM
[27]
  TGI: 3.38 µM
[28]
  TGI: 4.2 µM
[29]
  TGI: 4.22 µM
[30]
  TGI: 4.39 µM
[31]
  TGI: 3.05 µM
[32]
  TGI: 6.93 µM
[33]
  TGI: 4.12 µM
[34]
  TGI: 6.71 µM
[35]
  TGI: 3.53 µM
[36]
  TGI: 3.21 µM
[37]
  TGI: 4.61 µM
[38]
  TGI: 3.42 µM
[39]
  TGI: 4.31 µM
[40]
  TGI: 4.39 µM
[41]
  TGI: 11.4 µM
[42]
  TGI: 4.25 µM
[43]
  TGI: 3.42 µM
[44]
  TGI: 3.7 µM
[45]
  TGI: 4.6 µM
[46]
  TGI: 5.04 µM
[47]
  TGI: 5.87 µM
[48]
  TGI: 4.03 µM
[49]
  TGI: 4.42 µM
[50]
  TGI: 3.4 µM
[51]
  TGI: 9.21 µM
[52]
  TGI: 3.42 µM
[53]
  TGI: 3.71 µM
[54]
  TGI: 4.59 µM

## O=C(NCCS(=O)(=O)N1C(=O)C2CCCN2C(=O)[C@@H]1Cc1ccccc1)OCc1ccccc1 (stereo partly drawn)
[1]
  TGI: > 100 µM
[2]
  TGI: 95.9 µM
[3]
  TGI: > 100 µM
[4]
  TGI: > 100 µM
[5]
  TGI: > 100 µM
[55]
  TGI: > 100 µM
[6]
  TGI: 58.4 µM
[7]
  TGI: > 100 µM
[8]
  TGI: 89.2 µM
[10]
  TGI: > 100 µM
[11]
  TGI: 73.2 µM
[12]
  TGI: > 100 µM
[13]
  TGI: > 100 µM
[56]
  TGI: 48.9 µM
[14]
  TGI: > 100 µM
[15]
  TGI: > 100 µM
[16]
  TGI: > 100 µM
[17]
  TGI: > 100 µM
[18]
  TGI: > 100 µM
[57]
  TGI: > 100 µM
[19]
  TGI: > 100 µM
[20]
  TGI: > 100 µM
[21]
  TGI: > 100 µM
[22]
  TGI: > 100 µM
[23]
  TGI: > 100 µM
[25]
  TGI: > 100 µM
[26]
  TGI: > 100 µM
[27]
  TGI: > 100 µM
[28]
  TGI: > 100 µM
[29]
  TGI: > 100 µM
[58]
  TGI: > 100 µM
[30]
  TGI: 70.2 µM
[31]
  TGI: > 100 µM
[32]
  TGI: > 100 µM
[33]
  TGI: > 100 µM
[34]
  TGI: 64.4 µM
[35]
  TGI: > 100 µM
[36]
  TGI: > 100 µM
[37]
  TGI: > 100 µM
[38]
  TGI: > 100 µM
[39]
  TGI: > 100 µM
[40]
  TGI: > 100 µM
[41]
  TGI: > 100 µM
[42]
  TGI: > 100 µM
[43]
  TGI: > 100 µM
[44]
  TGI: > 100 µM
[45]
  TGI: > 100 µM
[46]
  TGI: > 100 µM
[47]
  TGI: > 100 µM
[48]
  TGI: > 100 µM
[49]
  TGI: > 100 µM
[50]
  TGI: > 100 µM
[51]
  TGI: > 100 µM
[52]
  TGI: > 100 µM
[53]
  TGI: > 100 µM
[54]
  TGI: 11 µM

## Cc1ccc(NC(=O)CCC(=O)C2CC(=O)CCC2=O)cc1C (stereo not drawn)
[1]
  TGI: > 100 µM
[3]
  TGI: > 100 µM
[4]
  TGI: > 100 µM
[5]
  TGI: > 100 µM
[55]
  TGI: > 100 µM
[6]
  TGI: > 100 µM
[7]
  TGI: > 100 µM
[8]
  TGI: > 100 µM
[9]
  TGI: > 100 µM
[10]
  TGI: > 100 µM
[11]
  TGI: > 100 µM
[12]
  TGI: > 100 µM
[13]
  TGI: > 100 µM
[56]
  TGI: > 100 µM
[14]
  TGI: > 100 µM
[15]
  TGI: > 100 µM
[16]
  TGI: > 100 µM
[17]
  TGI: > 100 µM
[18]
  TGI: > 100 µM
[57]
  TGI: > 100 µM
[19]
  TGI: > 100 µM
[20]
  TGI: > 100 µM
[21]
  TGI: > 100 µM
[22]
  TGI: > 100 µM
[23]
  TGI: > 100 µM
[24]
  TGI: > 100 µM
[25]
  TGI: > 100 µM
[26]
  TGI: > 100 µM
[27]
  TGI: > 100 µM
[28]
  TGI: > 100 µM
[29]
  TGI: > 100 µM
[30]
  TGI: > 100 µM
[31]
  TGI: > 100 µM
[32]
  TGI: > 100 µM
[33]
  TGI: > 100 µM
[35]
  TGI: > 100 µM
[36]
  TGI: > 100 µM
[37]
  TGI: > 100 µM
[38]
  TGI: > 100 µM
[39]
  TGI: > 100 µM
[59]
  TGI: > 100 µM
[40]
  TGI: > 100 µM
[41]
  TGI: > 100 µM
[42]
  TGI: > 100 µM
[43]
  TGI: > 100 µM
[44]
  TGI: > 100 µM
[46]
  TGI: > 100 µM
[48]
  TGI: > 100 µM
[49]
  TGI: > 100 µM
[50]
  TGI: > 100 µM
[51]
  TGI: > 100 µM
[52]
  TGI: > 100 µM
[53]
  TGI: > 100 µM
